Measurements from patent publication US20190111040A1, “IN VIVO AMELIORATION OF ENDOGENOUS ANTI-TUMOR AUTOANTIBODIES TARGETING SURFACE TUMOR ANTIGENS VIA LOW-DOSE P4N” (THE JOHNS HOPKINS UNIVERSITY, priority 2016, published 2019).
Structures can show the parent of a compound that is named as a salt.

Columns and labels:
LTA4H = biological target: T1, LTA4H (Homo sapiens, UniProt P09960); test: LTB4 ELISA in THP-1 culture media; assay type: cell-based; settings: THP-1, 3 μM P4N
T1 construct: THP-1 cells (1×10^6 cells/ml/well) in a 24-well culture plate; endogenous in cells; host or cells: THP-1 cells (BCRC, Hsinchu, Taiwan)
T1 sequence (P09960 1-611): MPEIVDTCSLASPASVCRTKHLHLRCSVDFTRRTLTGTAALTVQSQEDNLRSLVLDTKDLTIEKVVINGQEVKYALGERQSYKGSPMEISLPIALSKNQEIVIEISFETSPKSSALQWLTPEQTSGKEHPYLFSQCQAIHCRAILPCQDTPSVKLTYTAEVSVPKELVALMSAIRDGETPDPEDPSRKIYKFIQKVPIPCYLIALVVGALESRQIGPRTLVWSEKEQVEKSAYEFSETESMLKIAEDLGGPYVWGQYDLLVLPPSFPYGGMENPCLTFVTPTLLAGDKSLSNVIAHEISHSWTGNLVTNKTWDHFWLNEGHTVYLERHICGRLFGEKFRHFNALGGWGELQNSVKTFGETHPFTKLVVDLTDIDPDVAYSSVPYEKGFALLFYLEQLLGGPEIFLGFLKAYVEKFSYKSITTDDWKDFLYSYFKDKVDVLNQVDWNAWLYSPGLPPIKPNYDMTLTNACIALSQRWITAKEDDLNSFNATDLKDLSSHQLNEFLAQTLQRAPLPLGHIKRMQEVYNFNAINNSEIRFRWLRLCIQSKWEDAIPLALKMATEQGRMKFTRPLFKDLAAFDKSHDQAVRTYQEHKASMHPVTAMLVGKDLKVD
Method: ELISA assays. THP-1 cells (1×10^6 cells/ml/well) in a 24-well culture plate were pretreated with 10 μM bestatin (a LTA4H inhibitor, Sigma-Aldrich) for 2 h and then treated with 3 μM P4N for various time intervals. The levels of LTB4 in the culture media were determined by the LTB4 (Enzo Life Sciences, Farmingdale, N.Y.) (R&D) ELISA Kits. The amount of TNF-α, IL-8 and Activin A in cultured media were measured in a similar manner.

CT26 tumors = test: P4N in B cell or CD8+ T cell depleted mice bearing CT26 tumors; assay type: in vivo, BALB/c mice; settings: 5 mg/kg intratumoral every week
Method: FIGS. 1A-1C illustrate the antitumor effects of low dose P4N in immune competent and deficient mice. (A) BALB/c (n=10/group) and nude mice (n=10/group) bearing CT26 tumors were treated with a single intratumoral injection of 2.5 or 5 mg/kg of P4N N. (B) B cell or CD8+ T cell depleted BALB/c mice (n=9/group) bearing CT26 tumors were treated with 5 mg/kg of P4N by intratumoral injection every week. Tumor volumes were measured every 2 days after treatments. Significant differences between the P4N groups and the PBS group were identified and labeled with *:p<0.05 and **:p<0.01. (C) Immunohistochemistry staining was used to monitor the infiltrations of macrophage (F4/80), DC (CD11c), T (CD3) and B cells (CD20) in the tumor area after a single intratumoral injection of PBS or 5 mg/kg of P4N. The photos are representative of the mice sacrificed on day 7 after the treatments.
P4N treatments in vivo. BALB/c or BALB/c/nu mice (6 week old) were inoculated subcutaneously with 1×10^6 CT-26 cells in 100 μl PBS. When the average tumor mass reached 50 mm^3, the animals were treated with 2.5 mg/kg or 5 mg/kg of P4N in one intratumoral injection. Subsequently, the tumor volumes were measured using a caliper every 2 days, and the volumes were calculated using the following formula: volume (mm^3)=length×width×height. Before sacrifice, the sera of the mice were collected for experimental use. […]

PBMCs = test: Cytokine and chemokine profile of P4N treated PBMC, Bio-Plex; assay type: cell-based, human; settings: 3 μM P4N
Method: PBMCs isolated from 7 healthy donors were treated with 3 μM of P4N for 48 h. Supernatants were collected and analyzed for human cytokines using the Bio-Plex assay. Shown are the changed results of the production of 27 human cytokines when PBMCs were treated with P4N in three independent experiments. The levels of IL-4, IL-5, IL-7, IL-9, Eotaxin and FGF were undetectable.
The effects of P4N on the profile of cytokine expression. PBMCs (2×10^6 cells/ml) from seven healthy individuals were seeded in each well of a 24-well microplate and treated with 3 μM of P4N for 24 h. Cell supernatants were collected for analysis of cytokine levels by a cytokine multiplex assay using the Bio-Plex Pro Human Cytokine Standard Group I 27-Plex, following the manufacturer's protocol (Bio-Rad, Hercules, Calif.). The change levels of cytokine were calculated as follows: Change level=(value of the P4N-treated cells)/(value of the untreated cells)×100%.

THP-1 cells = test: Cytokine and chemokine production of P4N treated THP-1, Bio-Plex and ELISA; assay type: cell-based, human
Method: THP-1 cells were treated with 3 μM of P4N or the vehicle control (NC) for 24 h. Supernatants were collected and analyzed using the Bio-Plex assay for human cytokines. Shown are the concentrations of 27 human cytokines for each treatment from three independent experiments. The levels of IL-2, IL-4, IL-6, IL-7, IL-9, IL13, IL-15, Eotaxin, G-CSF, IFN-γ and PDGF-bb were undetectable.
FIG. 13 provides graphs showing P4N-induced pro-inflammatory cytokine production in THP-1 cells. THP-1 cells were treated with 3 μM P4N for different lengths of time, Cell supernatants were collected and TNF-α, IL-1β and IL-8 quantitated by ELISA. All results are the mean of three independent experiments (n=6).

[1] = THP-1 monocytes, 3 μM P4N, ELISA

For `C[C@H](Cc1ccc(OCCN2CCCCC2)c(OCCN2CCCCC2)c1)[C@@H](C)Cc1ccc(OCCN2CCCCC2)c(OCCN2CCCCC2)c1` [P4N, meso-2,3-dimethyl-1,4-bis(3,4-[2-(piperidino)ethoxyphenyl])butane tetrakishydrochloride salt], the “production of LTA4H reaction product LTB4” value (LTA4H) was “increased the production”, the “P4N-induced tumor inhibition under B cell-depletion” value (CT26 tumors; B cell depleted) was “abolished the effect of P4N-induced tumor inhibition” and the “P4N-induced tumor inhibition under CD8+ T cell-depletion” value (CT26 tumors; CD8+ T cell depleted) was “only attenuated the effect of P4N-induced tumor inhibition”. For the same compound, the “levels of pro-inflammatory cytokines (TNF-α, IL-1P and IL-6) and chemokines (IL-8, IP-10, MIP-1α, MIP-1β and RANTES)” value (PBMCs) was “significantly increased”, the “levels of IL-4, IL-5, IL-7, IL-9, Eotaxin and FGF” value (PBMCs; 48 h) was “undetectable” and the “levels of IL-2, IL-4, IL-6, IL-7, IL-9, IL13, IL-15, Eotaxin, G-CSF, IFN-γ and PDGF-bb” value (THP-1 cells; THP-1, 3 μM P4N, 24 h) was “undetectable”. The “expression of pro-inflammatory cytokines and chemokines” value (THP-1 cells; THP-1, 3 μM P4N, 24 h, Bio-Plex) was “increased the expression”, the “time of stimulated IL-8 release” value (THP-1 cells; [1]) was at least 8 h and the “time to induction of TNF-α and IL-1β expression” value (THP-1 cells; [1]) was at most 4 h.
